Reference: patent US12194027B2, “Small molecule inhibitors of GPCR GPR68 and related receptors for treating cancer, glioblastoma, and other indications” (UNIVERSITY OF MARYLAND, BALTIMORE, priority 2019, dated 2025)

The compounds below were run against Lpa1 (Homo sapiens (Human), UniProt Q92633) (assay: Lpa1 activity of OGM analogs (Table 5)). Conditions: not given.
Chain of Lpa1 (Q92633 whole entry, species assumed): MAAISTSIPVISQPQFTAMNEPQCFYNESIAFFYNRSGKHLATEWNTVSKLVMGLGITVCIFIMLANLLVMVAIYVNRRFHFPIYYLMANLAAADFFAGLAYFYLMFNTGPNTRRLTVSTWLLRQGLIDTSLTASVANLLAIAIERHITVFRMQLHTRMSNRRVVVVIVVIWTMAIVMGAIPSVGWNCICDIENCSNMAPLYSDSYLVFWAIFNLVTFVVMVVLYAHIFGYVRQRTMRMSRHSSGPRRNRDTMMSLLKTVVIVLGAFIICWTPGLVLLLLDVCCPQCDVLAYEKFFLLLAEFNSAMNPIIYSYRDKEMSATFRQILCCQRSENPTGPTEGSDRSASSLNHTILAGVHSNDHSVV
Type: cell-based
In the case of `Cc1noc(-c2ccc(CSCCC(=O)O)cc2)c1NC(=O)OC(C)c1ccccc1Cl` (centres unmarked) [LPAi, reference compound], the IC50 is reported as 0.25 µM. `Cc1ccc2c(c1)C1(NN=C(c3ccccc3)S1)C(=O)N2` (centres unmarked) [OGM3] gave an IC50 of 6.4 µM. Work on `CCc1ccc2c(c1)C1(NN=C(c3ccccc3O)S1)C(=O)N2` (centres unmarked) [OGM4] yielded an IC50 of 1.4 µM.

The compounds below were run against GPR68 (Homo sapiens (Human), UniProt Q15743) (assay: GPR68 inhibitory activity of OGM analogs (Table 5)). Conditions: not given.
Chain of GPR68 (Q15743 whole entry, looked up): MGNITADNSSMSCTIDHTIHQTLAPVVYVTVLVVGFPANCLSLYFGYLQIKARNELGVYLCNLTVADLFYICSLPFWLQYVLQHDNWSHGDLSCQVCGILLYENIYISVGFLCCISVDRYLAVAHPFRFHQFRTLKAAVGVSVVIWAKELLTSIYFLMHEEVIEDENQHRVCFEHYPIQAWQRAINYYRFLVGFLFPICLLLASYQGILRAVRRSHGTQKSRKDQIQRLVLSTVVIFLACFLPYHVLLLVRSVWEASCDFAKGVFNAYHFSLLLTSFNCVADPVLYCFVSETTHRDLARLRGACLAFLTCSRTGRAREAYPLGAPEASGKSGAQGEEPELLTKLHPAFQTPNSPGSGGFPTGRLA
Type: cell-based
Procedure: GPCR profiling assays were performed by Millipore (St. Louis, MO) using in cells expressing Gα15, a promiscuous G protein that enhances GPCR coupling to downstream Ca2+ signaling pathways.
Since GPCRs represent >30% of targets for FDA-approved small molecules and are known to modulate cell migration, activity against 158 GPCRs was assessed based on their chemical structures. GPCRs (158) were tested for agonist and antagonist activity at 10 μM. […] Chemical segregation analysis of zebrafish phenotype was conducted to further identify the inhibitory activity responsible for the zebrafish phenotype. […] The identities of the R groups in FIG. 2B are shown below in Table 5.
Chem1-GPR68 reporter cells were treated with 20 uM OM8345 for 2 hours and then rinsed with HBSS. […] The GPR68 inhibitory activity of OGM analogs segregated with the ability of the molecule to induce the phenotype in zebrafish. Neural crest progenitors labeled with In situ hybridization of FoxD3 show normal formation of the progenitor pool.
Work on `CCc1ccc2c(c1)C1(NN=C(c3cccc4ccccc34)S1)C(=O)N2` (centres unmarked) [OGM1] yielded an IC50 of 0.16 µM. With `Cc1ccc2c(c1)C1(NN=C(c3ccccc3)S1)C(=O)N2` (centres unmarked) [OGM3] the IC50 was 0.76 µM. Work on `CCc1ccc2c(c1)C1(NN=C(c3ccccc3O)S1)C(=O)N2` (centres unmarked) [OGM4] yielded an IC50 of 3.4 µM. `CN1C(=O)C2(NN=C(c3ccccc3)S2)c2ccccc21` (centres unmarked) [OGM5] was tested, and the IC50 was 0.81 µM. With `CN1C(=O)C2(NN=C(c3cccc4ccccc34)S2)c2ccccc21` (centres unmarked) [OGM6] the IC50 was 1.5 µM.

Each compound was assayed on zebrafish embryo (assay: zebrafish embryo phenotype (pigmentation, morphology)). Conditions: concentrations up to 200× the IC50.
Type: in vivo
`Cc1noc(-c2ccc(CSCCC(=O)O)cc2)c1NC(=O)OC(C)c1ccccc1Cl` (centres unmarked) [LPAi, reference compound] was tested, and the zebrafish phenotype was “failed to induce a noticeable phenotype”. In the case of `COc1cc(Br)c(S(=O)(=O)Nc2ccc(Cl)c(O[C@@H]3CCN(C)C3)c2)cc1OC` [UT2i, reference compound], the zebrafish phenotype is reported as “failed to induce a noticeable phenotype”.

These compounds were tested on U87glioblastoma cells (assay: 3D tumoroid growth over time with GPR68 modulators). Conditions: 10 μM/20 μM, imaged every 12 hours.
Type: cell-based
Procedure: A GPR68-positive allosteric modulator, Ogerin, was tested. U87glioblastoma cells were plated in low attachment round bottom 96-well plates and allowed to form tumor spheroids for 3 days (T0). These spheroids were treated with Vehicle (DMSO), 10 μM/20 μM Ogerin or 10 μM/20 μM Ogremorphin (OGM2). The spheroids were placed in the Lionheart™ HCS equipped with environmental control (5% CO2 at 37° C.) and imaged every 12 hours.
With `Nc1nc(NCc2ccccc2)nc(-c2ccccc2CO)n1` [Ogerin] the “growth in 3D tumoroid culture” value was “Stimulates Growth”.

What follows are compounds tested against GPR68/OGR1 (Homo sapiens (Human), UniProt Q15743) (assay: inhibition of GPR68/OGR1 in CHEM1-OGR1 cells, Fluo-8 calcium response to acidified media). Conditions: acidified media pH 6.4, Fluo-8.
Chain of GPR68/OGR1 (Q15743 whole entry): as the sequence (Q15743 whole entry, looked up) above
Type: cell-based
Procedure: Briefly, the methods were: On the day before the assay 20,000 cells per well of CHEM1-OGR1 cells were plated in 10% DMEM containing 10% FBS and 1% Pen/Strep into a 96 well plate. After 24 hours media was removed and cells were stained with 80 uL Fluo-8 calcium indicator dye according to manufacturer's protocol. After staining cells were treated with 20 uL of 4× concentration of test compounds. Using kinetic imaging in the Lionheart HCS fluorescence intensity was continuously measure at 10 frames per second, for 5 seconds before 100 μL of acidified media was added to the well resulting in a pH of 6.4. A ratio of fluorescence intensities prior to addition and at peak were calculated and averaged. The resulting data were platted and using a 4 parameter logistic regression EC50 for each test compound was determined.
Work on `CCc1ccc2c(c1)C1(NN=C(c3cccc4ccccc34)S1)C(=O)N2` (centres unmarked) [OGM1] yielded an EC50 of 0.17 µM. `O=C1Nc2ccc(Cl)cc2C12NN=C(c1ccccc1)S2` (centres unmarked) [OGM7] was tested, and the EC50 was 1.62 µM. In the case of `O=C1Nc2ccccc2C12NN=C(c1ccc(Cl)cc1)S2` (centres unmarked) [OGM13], the EC50 is reported as less than 0.4 µM. `COc1ccc(C2=NNC3(S2)C(=O)Nc2ccc(OC)cc23)cc1` (centres unmarked) [OGM17] showed an EC50 of 0.9 µM. `Cc1ccc(C2=NNC3(S2)C(=O)Nc2ccc(F)cc23)cc1` (centres unmarked) [OGM18] showed an EC50 of 0.985 µM. In the case of `O=C1Nc2ccc(Cl)cc2C12NN=C(c1ccc(Cl)cc1)S2` (centres unmarked) [OGM19], the EC50 is reported as less than 0.4 µM. `O=C1Nc2ccc(Cl)cc2C12NN=C(c1ccc(F)cc1)S2` (centres unmarked) [OGM21] was tested, and the EC50 was 0.796 µM. Compound `COc1ccc2c(c1)C1(NN=C(c3ccc(Cl)cc3)S1)C(=O)N2` (centres unmarked) [OGM22] has an EC50 of less than 0.4 µM. Work on `O=C1Nc2ccc(Cl)cc2C12NN=C(c1cccc3ccccc13)S2` (centres unmarked) [OGM23] yielded an EC50 of 5.04 µM. `COc1ccc2cc(C3=NNC4(S3)C(=O)Nc3ccc(Cl)cc34)ccc2c1` (centres unmarked) [OGM24] was tested, and the EC50 was 45.9 µM. `COc1ccc2cc(C3=NNC4(S3)C(=O)Nc3ccc(F)cc34)ccc2c1` (centres unmarked) [OGM26] showed an EC50 of 0.708 µM. `CCc1ccc2c(c1)C1(NN=C(c3ccc4cc(OC)ccc4c3)S1)C(=O)N2` (centres unmarked) [OGM27] gave an EC50 greater than 10 µM. `CCc1ccc2c(c1)C1(NN=C(c3ccc(OC)cc3)S1)C(=O)N2` (centres unmarked) [OGM28] was tested, and the EC50 was greater than 10 µM. `COc1ccc(C2=NNC3(S2)C(=O)N(CC=C(C)C)c2ccc(Cl)cc23)cc1` (centres unmarked) [OGM29] showed an EC50 greater than 10 µM. `COc1ccc(C2=NNC3(S2)C(=O)N(CC=C(C)C)c2ccccc23)cc1` (centres unmarked) [OGM30] showed an EC50 greater than 10 µM. Work on `CC(C)=CCN1C(=O)C2(NN=C(c3cccc4ccccc34)S2)c2cc(Cl)ccc21` (centres unmarked) [OGM32] yielded an EC50 greater than 10 µM. Compound `CC(C)=CCN1C(=O)C2(NN=C(c3cccc4ccccc34)S2)c2ccccc21` (centres unmarked) [OGM33] has an EC50 greater than 10 µM. `COc1ccc2cc(C3=NNC4(S3)C(=O)N(CC=C(C)C)c3ccccc34)ccc2c1` (centres unmarked) [OGM34] gave an EC50 greater than 10 µM. For `COc1ccc2cc(C3=NNC4(S3)C(=O)N(CC=C(C)C)c3ccc(Cl)cc34)ccc2c1` (centres unmarked) [OGM35], the EC50 was greater than 10 µM. `COc1ccc2c(c1)C1(NN=C(c3cccc4cccnc34)S1)C(=O)N2` (centres unmarked) [OGM38] was tested, and the EC50 was 3.69 µM. `COc1ccc2c(c1)C1(NN=C(c3ccc4ncccc4c3)S1)C(=O)N2` (centres unmarked) [OGM43] was tested, and the EC50 was greater than 10 µM. Compound `COC(=O)c1ccc2c(c1)C1(NN=C(c3cccc4cccnc34)S1)C(=O)N2` (centres unmarked) [OGM44] has an EC50 of 2.92 µM. `O=C1Nc2ccc(F)cc2C12NN=C(c1ccc3ncccc3c1)S2` (centres unmarked) [OGM45, 5-fluoro-5′-(quinolin-6-yl)-1,2-dihydro-3′H-spiro[indole-3,2′-[1,3,4]thiadiazol]-2-one] gave an EC50 of 10 µM. Compound `COC(=O)c1ccc2c(c1)C1(NN=C(c3cccnc3)S1)C(=O)N2` (centres unmarked) [OGM47] has an EC50 greater than 10 µM. For `CCc1ccc2c(c1)C1(NN=C(c3cccnc3)S1)C(=O)N2` (centres unmarked) [OGM48], the EC50 was greater than 10 µM. Compound `CCc1ccc2c(c1)C1(NN=C(c3ccnc(OC)c3)S1)C(=O)N2` (centres unmarked) [OGM49, 5-ethyl-5′-(2-methoxypyridin-4-yl)-1,2-dihydro-3′H-spiro[indole-3,2′-[1,3,4]thiadiazol]-2-one: 2,2,2-trifluoroacetic Acid] has an EC50 of 1.09 µM. For `COc1ccc2c(c1)C1(NN=C(c3cccnc3)S1)C(=O)N2` (centres unmarked) [OGM50], the EC50 was 1.86 µM. `COc1ccc2c(c1)NC(=O)C21NN=C(c2ccnc(OC)c2)S1` (centres unmarked) [OGM51] gave an EC50 of 1.44 µM. `NS(=O)(=O)c1ccc2c(c1)C1(NN=C(c3ccccc3)S1)C(=O)N2` (centres unmarked) [OGM52] was tested, and the EC50 was 0.822 µM. `NS(=O)(=O)c1ccc2c(c1)C1(NN=C(c3cccnc3)S1)C(=O)N2` (centres unmarked) [OGM53] gave an EC50 of 0.9 µM. With `COc1cc(C2=NNC3(S2)C(=O)Nc2ccc(F)cc23)ccn1` (centres unmarked) [OGM57] the EC50 was 0.805 µM. `CCc1ccc2c(c1)C1(NN=C(c3cccc4cccnc34)S1)C(=O)N2` (centres unmarked) [OGM58] was tested, and the EC50 was less than 0.4 µM. `CCc1ccc2c(c1)C1(NN=C(c3ccncc3)S1)C(=O)N2` (centres unmarked) [OGM60] was tested, and the EC50 was less than 0.4 µM.

What follows are compounds tested on A2058 melanoma cell line (assay: scratch assay for migration, A2058). Conditions: OGM 5 μM, EIPA 10 μM, 20 hours.
Type: cell-based, human
Procedure: (§1) Cells were grown to confluence and the cells were denuded with a P200 tip. A medium change was done to add fresh medium, remove loose cells and add compounds OGM (5 μM) and EIPA (10 μM). The area of the scratch was observed 20 hours later.
(§2) Since there are numerous parallels are found between neural crest cells and cancer during migration, we examined whether OGM could inhibit the migration of cells in human melanoma cell lines (Oppitz et al., 2007; Schriek et al., 2005; Sinnberg et al., 2018). […] A2058, MeWo and WM115 cells were grown to confluence and a stripe of cells were denuded with a p200 pipette tip “scratch” and rinsed with PBS. Cells were treated with OGM or EIPA, or DMSO and incubated in low serum media. Imaging was done at 30 minutes after “scratch” and then 20 hours afterwards. Areas were then measured and normalized to the initial area.
(§3) Previous studies with the MV3 melanoma cell line have shown that disruption of proton efflux with EIPA inhibition of NHE1 can also reduce melanoma motility (Ludwig et al., 2013; Schneider et al., 2009; Stock et al., 2007, 2005; Stüwe et al., 2007). […] Although the expression of GPR68 and other proton-sensing receptors have been characterized in various skin cancers (Merkel cell carcinoma, dermatofibrosarcoma protuberans, atypical fibroxanthoma, and pleomorphic dermal sarcoma), expression in melanoma cell lines has not investigated (Nassios et al., 2019).
With `CCN(c1nc(N)c(C(=O)NC(=N)N)nc1Cl)C(C)C` [EIPA, reference compound] the “migration in scratch assay” value was “inhibited migration”.

What follows are compounds tested on MeWo melanoma cell line (assay: scratch assay for migration, MeWo). Conditions: OGM 5 μM, EIPA 10 μM, 20 hours.
Type: cell-based, human
Procedure: as §1, §2, §3
With `CCN(c1nc(N)c(C(=O)NC(=N)N)nc1Cl)C(C)C` [EIPA, reference compound] the “migration in scratch assay” value was “refractory to the inhibition”.

What follows are compounds tested on WM115 melanoma cell line (assay: scratch assay for migration, WM115). Conditions: OGM 5 μM, EIPA 10 μM, 20 hours.
Type: cell-based, human
Procedure: as §1, §2, §3
`CCN(c1nc(N)c(C(=O)NC(=N)N)nc1Cl)C(C)C` [EIPA, reference compound] was tested, and the “migration in scratch assay” value was “inhibited migration”.
